From the supplement of paper PMC11208160 come the findings set out here.

A short description of this data set: recombinant barcode read abundance after kanamycin selection (control-corrected) (log10(CPM+1)); higher = more efficient recombination; sequences stand for … in AGTGCAGAGAAAATCGGCCAGTTTTCTCTGCCTGCAGTCCGCATGCCGT…AGATTTATGCAGCGGACTGCCTTTCTCCCAAAGTGATAAACCGGACAGTATCATGGACCGGTTTTCCCGGTAATCCGTATTTGCAAGGTTGGTTTCACT; site = the 11-nt target. In outline:
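Recombination efficiency was calculated from barcode counts at recombinant junctions, normalized to counts per million, averaged and corrected by the control. Each value is given as log10(CPM+1). The constructs were Gibson-cloned oligos (promoter, target, barcode, J23119-driven first 104 bridge RNA bases) in a vector with the remaining 73 bp and a T7-inducible recombinase, co-electroporated into E. coli with a donor plasmid and plated in duplicate on chloramphenicol/ampicillin LB agar (control) or chloramphenicol/ampicillin/kanamycin with 0.1 mM IPTG.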
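Further: IS621 recombinase and bridge RNA in Escherichia coli cells.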

As to “TACACGACTTGGGTTCTAACCTGTTGCGG (site TACACTACTCG)”, the “recombinant barcode read abundance (log10)” value came to 0.
As for “TACAGAGCTTGGGTTCTAACCTGTTGCGG (site TAAAGAGCTCC)”, the figure is 0.363; as for “TACAGAGCTTGGGTTCTAACCTGTTGCGG (site TACAGAGCTCC)”, 2.36.
Next, “TACAGAGCTTGGGTTCTAACCTGTTGCGG (site TAGAGAGCTCC)”: 0.127; “TACAGAGCTTGGGTTCTAACCTGTTGCGG (site TATAGAGCTCC)”: 0.488.
On to “TACAGGACTTGGGTTCTAACCTGTTGCAG (site TACAGGACTCT)”, for which the “recombinant barcode read abundance (log10)” value was found to be 2.15.
As for “TACAGGACTTGGGTTCTAACCTGTTGCAG (site TAGAGGACTCT)”, the figure is 0.274; as for “TACAGTTCTTGGGTTCTAACCTGTTGCTT (site TACAGTTCTAA)”, 0.173; as for “TACAGTTCTTGGGTTCTAACCTGTTGCTT (site TACCATTCTAA)”, 0.107.
As for “TACATCCCTTGGGTTCTAACCTGTTGCCT (site TACATCCCTAG)”, the figure is 0.915; as for “TACATCCCTTGGGTTCTAACCTGTTGCCT (site TACATCCCTCG)”, 0.0996.
As for “TACATCCCTTGGGTTCTAACCTGTTGCCT (site TACATCCCTGG)”, the figure is 0.0929.
Take “TACATCCCTTGGGTTCTAACCTGTTGCCT (site TACATCCCTTG)”: the “recombinant barcode read abundance (log10)” value came out at 0.0395.
Next, “TACCCACCTTGGGTTCTAACCTGTTGCAG (site CCGAATTCTAA)”: 0.159; “TACCCACCTTGGGTTCTAACCTGTTGCAG (site TACCCACCTCT)”: 2.41.
As for “TACCCTACTTGGGTTCTAACCTGTTGCTA (site TACCCGCCTTA)”, the figure is 0.146; as for “TACCCTACTTGGGTTCTAACCTGTTGCTA (site TACCCTACTTA)”, 0.736.
Next, “TACCGAGCTTGGGTTCTAACCTGTTGCTG (site CCTGTCACTTG)”: 0.377; “TACCGAGCTTGGGTTCTAACCTGTTGCTG (site TACCGAGCTCA)”: 0.604.
With “TACCGCTCTTGGGTTCTAACCTGTTGCTT (site TACAGCTCTAA)”, the “recombinant barcode read abundance (log10)” value came to 0.0488.
As for “TACCGCTCTTGGGTTCTAACCTGTTGCTT (site TACCGCTCTAA)”, the figure is 1.01.
As for “TACCGCTCTTGGGTTCTAACCTGTTGCTT (site TACGGCTCTAA)”, the figure is 0.043.
As for “TACCGCTCTTGGGTTCTAACCTGTTGCTT (site TACTGCTCTAA)”, the figure is 0.158.
On to “TACCGTCCTTGGGTTCTAACCTGTTGCAT (site TACCGTCCTAT)”, for which the “recombinant barcode read abundance (log10)” value amounted to 1.18.
As for “TACCGTCCTTGGGTTCTAACCTGTTGCAT (site TATCGTCCTAT)”, the figure is 0.155.
Next, “TACCGTCCTTGGGTTCTAACCTGTTGCGG (site GCGTCCTCTAA)”: 0.312.
As for “TACCGTCCTTGGGTTCTAACCTGTTGCGG (site TACCGTCCTCC)”, the figure is 1.8.
With “TACCTTACTTGGGTTCTAACCTGTTGCAG (site AGAAGATCTAG)”, the “recombinant barcode read abundance (log10)” value came out at 0.17.
As for “TACCTTACTTGGGTTCTAACCTGTTGCAG (site TACCTTACTCT)”, the figure is 0.897; as for “TACGAATCTTGGGTTCTAACCTGTTGCCT (site TACGAATCTAG)”, 0.881.
Next, “TACGAATCTTGGGTTCTAACCTGTTGCCT (site TACGAATCTCG)”: 0.0232; “TACGACACTTGGGTTCTAACCTGTTGCCT (site TACGACACTAG)”: 1.9; “TACGACACTTGGGTTCTAACCTGTTGCCT (site TCCGACACTAG)”: 0.0501.
Next, “TACGACTCTTGGGTTCTAACCTGTTGCTT (site TACGACTCTAA)”: 1.73; “TACGACTCTTGGGTTCTAACCTGTTGCTT (site TTCGACTCTTA)”: 0.0713; “TACGCACCTTGGGTTCTAACCTGTTGCGA (site GTAATTACTAG)”: 0.297.
Consider “TACGCACCTTGGGTTCTAACCTGTTGCGA (site TACGCACCTTC)”, for which the “recombinant barcode read abundance (log10)” value was determined as 1.03.
As to “TACGCGGCTTGGGTTCTAACCTGTTGCCT (site TACGAGGCTAG)”, the “recombinant barcode read abundance (log10)” value was 0.0562.
Regarding “TACGCGGCTTGGGTTCTAACCTGTTGCCT (site TACGCGGCTAG)”, the “recombinant barcode read abundance (log10)” value came out at 0.335.
Next, “TACGCGGCTTGGGTTCTAACCTGTTGCCT (site TACGGGGCTAG)”: 0.208.
Take “TACGCGGCTTGGGTTCTAACCTGTTGCCT (site TACGTGGCTAG)”: the “recombinant barcode read abundance (log10)” value worked out at 0.192.
Next, “TACGCTCCTTGGGTTCTAACCTGTTGCCT (site TACGCTCCTAA)”: 0.0709; “TACGCTCCTTGGGTTCTAACCTGTTGCCT (site TACGCTCCTAC)”: 0; “TACGCTCCTTGGGTTCTAACCTGTTGCCT (site TACGCTCCTAG)”: 0.271.
As for “TACGCTCCTTGGGTTCTAACCTGTTGCCT (site TACGCTCCTAT)”, the figure is 0.452.
Next, “TACGGCTCTTGGGTTCTAACCTGTTGCTT (site TACAGCTCTAA)”: 0.297; “TACGGCTCTTGGGTTCTAACCTGTTGCTT (site TACCGCTCTAA)”: 0.0429.
With “TACGGCTCTTGGGTTCTAACCTGTTGCTT (site TACGGCTCTAA)”, the “recombinant barcode read abundance (log10)” value is 1.51.
Next, “TACGGCTCTTGGGTTCTAACCTGTTGCTT (site TACTGCTCTAA)”: 0.0509; “TACTAAGCTTGGGTTCTAACCTGTTGCTT (site TACTAAGCTAA)”: 0.184; “TACTAAGCTTGGGTTCTAACCTGTTGCTT (site TACTAAGCTAC)”: 0.0381.
Next, “TACTAAGCTTGGGTTCTAACCTGTTGCTT (site TACTAAGCTAG)”: 0.0797.
On to “TACTAAGCTTGGGTTCTAACCTGTTGCTT (site TACTAAGCTAT)”, for which the “recombinant barcode read abundance (log10)” value was 0.321.
Next, “TACTACCCTTGGGTTCTAACCTGTTGCGT (site TACTACCCTAC)”: 0.358; “TACTACCCTTGGGTTCTAACCTGTTGCGT (site TGCCACCCTAC)”: 1.28.
With “TACTCCTCTTGGGTTCTAACCTGTTGCGG (site CTAAAAGCTTG)”, the “recombinant barcode read abundance (log10)” value turned out to be 0.0539.
As for “TACTCCTCTTGGGTTCTAACCTGTTGCGG (site TACTCCTCTCC)”, the figure is 0.155.
Take “TACTCTTCTTGGGTTCTAACCTGTTGCCT (site GGTCAACCTCC)”: the “recombinant barcode read abundance (log10)” value is 0.0368.
As for “TACTCTTCTTGGGTTCTAACCTGTTGCCT (site TACTCTTCTAG)”, the figure is 0.279; as for “TACTGAACTTGGGTTCTAACCTGTTGCCT (site TACTAAACTAG)”, 0.0356.
As for “TACTGAACTTGGGTTCTAACCTGTTGCCT (site TACTCAACTAG)”, the figure is 0.104; as for “TACTGAACTTGGGTTCTAACCTGTTGCCT (site TACTGAACTAG)”, 0.159; as for “TACTGAACTTGGGTTCTAACCTGTTGCCT (site TACTTAACTAG)”, 0.305.
For “TACTGGGCTTGGGTTCTAACCTGTTGCTG (site TACTGGGCTCA)”, the “recombinant barcode read abundance (log10)” value came out at 0.684.
Next, “TACTGGGCTTGGGTTCTAACCTGTTGCTG (site TACTGGGCTCC)”: 0.0895; “TAGAACACTTGGGTTCTAACCTGTTGCCT (site AAGAACACTAG)”: 0.0955; “TAGAACACTTGGGTTCTAACCTGTTGCCT (site CAGAACACTAG)”: 0.256.
As for “TAGAACACTTGGGTTCTAACCTGTTGCCT (site GAGAACACTAG)”, the figure is 0.108; as for “TAGAACACTTGGGTTCTAACCTGTTGCCT (site TAGAACACTAG)”, 0.992.
Next, “TAGAACACTTGGGTTCTAACCTGTTGCTA (site TAGAACACTAA)”: 0.237; “TAGAACACTTGGGTTCTAACCTGTTGCTA (site TAGAACACTCA)”: 0.109.
Consider “TAGAACACTTGGGTTCTAACCTGTTGCTA (site TAGAACACTGA)”, for which the “recombinant barcode read abundance (log10)” value turned out to be 0.71.
For “TAGAACACTTGGGTTCTAACCTGTTGCTA (site TAGAACACTTA)”, the “recombinant barcode read abundance (log10)” value came out at 0.807.
As for “TAGAACACTTGGGTTCTAACCTGTTGCTG (site TAGAACACTAA)”, the figure is 0.106; as for “TAGAACACTTGGGTTCTAACCTGTTGCTG (site TAGAACACTCA)”, 1.
Next, “TAGAACACTTGGGTTCTAACCTGTTGCTG (site TAGAACACTGA)”: 0.132; “TAGAACACTTGGGTTCTAACCTGTTGCTG (site TAGAACACTTA)”: 0.0894.
